Assay results as given in ChEMBL document CHEMBL3244079, “Synthesis and antiarrhythmic activity of 2-dialkylaminoalkyl-9-phenyl-1H-indeno[2,1-c]pyridine derivatives” (J Med Chem, 1978).
Activity calls are given as the source filed them. No cut-off for these calls is given here.

Key:
Heart = assay: Antiarrhythmic activity in rabbit heart assessed as reduction in aconitine-induced ventricular arrhythmia at 40 mg/l after 30 mins by electrocardiographic analysis; format: functional, tissue-based; settings: Oryctolagus cuniculus
Canis familiaris [1] = organism: Canis familiaris; assay: Antiarrhythmic activity in mongrel dog Harris two-stage coronary ligation model assessed as reduction in ectopic beats by electrocardiographic analysis; format: functional; settings: Canis lupus familiaris, Heart; for minimal effective dose: read-out: MED
Canis familiaris [2] = assay: Antiarrhythmic activity in iv dosed mongrel dog assessed as reduction in ouabain-induced ventricular arrhythmia by electrocardiographic analysis; format: functional; settings: Canis lupus familiaris, Heart; for minimal effective dose: read-out: MED
Canis familiaris [3] = assay: Antiarrhythmic activity in iv dosed mongrel dog assessed as reduction in ouabain-induced ventricular arrhythmia measured as duration of action at MED by electrocardiographic analysis; format: functional, Canis lupus familiaris, Heart
Canis familiaris [4] = organism: Canis familiaris; assay: Antiarrhythmic activity in mongrel dog Harris two-stage coronary ligation model assessed as reduction in ectopic beats measured as duration of action at MED by electrocardiographic analysis; format: functional, Canis lupus familiaris, Heart
Canis familiaris [5] = organism: Canis familiaris; assay: Toxicity in mongrel dog Harris two-stage coronary ligation model; format: organism-based, Canis lupus familiaris; settings: in vivo

SMILES	Activity (Heart)	Activity (Canis familiaris [1])	minimal effective dose (Canis familiaris [2])	Time (Canis familiaris [3])	Time (Canis familiaris [4])	minimal effective dose (Canis familiaris [1])	Activity (Canis familiaris [2])	Activity (Canis familiaris [5])
Br.C1=C2C(=C(c3ccccc3)c3ccccc32)CN(Cc2ccccc2)C1	Active	inactive	15 mg/kg	17 min				
CC(C)N(CCC(C(N)=O)(c1ccccc1)c1ccccn1)C(C)C.O=P(O)(O)O (stereo not drawn) [DISOPYRAMIDE PHOSPHATE]			6.6 mg/kg	>30 min	23 min	7 mg/kg		
O=C(c1ccccc1)C1CN(CCCN2CCCCC2)CCC1(O)c1ccccc1 (stereo not drawn)	Active	inactive	10 mg/kg	15 min				
CN(C)CCCN1CC[C@H]2c3ccccc3[C@H](c3ccccc3)[C@H]2C1 (relative stereo)	Active						inactive	
CN(C)CCN1CCC(O)(c2ccccc2)C(C(=O)c2ccccc2)C1 (stereo not drawn)	Active						inactive	
CCN(CC)CCCN1CC[C@H]2c3ccccc3[C@@H](c3ccccc3)[C@H]2C1.Cl.O (relative stereo)	Active		20 mg/kg	15 min	10 min	12.5 mg/kg		
CCN(CC)CCCN1CCC(O)(c2ccccc2)C(C(=O)c2ccccc2)C1 (stereo not drawn)			12.5 mg/kg	32 min	16 min	7.5 mg/kg		
c1ccc([C@H]2c3ccccc3[C@@H]3CCNC[C@H]23)cc1 (relative stereo)	Active						inactive	
Br.C1=C2C(=C(c3ccccc3)c3ccccc32)CN(CCCN2CCCCC2)C1.O	Active		10 mg/kg	35 min	12 min	7.5 mg/kg		
CN(C)CCCN1CC[C@H]2c3ccccc3[C@@H](c3ccccc3)[C@H]2C1.Cl.O (relative stereo)	Active		10 mg/kg	15 min	17.5 min	10 mg/kg		
Br.CCN(CC)CCCN1CC=C2C(=C(c3ccccc3)c3ccccc32)C1.O	Active		20 mg/kg	35 min	10 min	15 mg/kg		
Br.CCN(CC)CCCN1CC[C@H]2c3ccccc3[C@H](c3ccccc3)[C@H]2C1.O (relative stereo)			15 mg/kg	19 min				
Cl.O.c1ccc([C@@H]2c3ccccc3[C@@H]3CCN(CCCN4CCCCC4)C[C@H]23)cc1 (relative stereo)		inactive	15 mg/kg	15 min				
Cl.O.c1ccc([C@H]2c3ccccc3[C@@H]3CCN(CCCN4CCCCC4)C[C@H]23)cc1 (relative stereo)	Active		10 mg/kg	30 min				Toxic
CCN(CC)CCN1CC[C@H]2c3ccccc3[C@H](c3ccccc3)[C@H]2C1 (relative stereo)	Active						inactive	
Br.CCN(CC)CCN1CC[C@H]2c3ccccc3[C@@H](c3ccccc3)[C@H]2C1.O (relative stereo)	Active		10 mg/kg	25 min	12.5 min	12.5 mg/kg		
CN(C)CCCN1CCC(O)(c2ccccc2)C(C(=O)c2ccccc2)C1 (stereo not drawn)	Active						inactive	
Br.CN(C)CCN1CC[C@H]2c3ccccc3[C@H](c3ccccc3)[C@H]2C1 (relative stereo)	Active	inactive	20 mg/kg	17 min				
C=C[C@H]1CN2CC[C@H]1C[C@@H]2[C@@H](O)c1ccnc2ccc(OC)cc12 [QUINIDINE]	Active		7.5 mg/kg	>30 min	23 min	12.8 mg/kg		
Br.c1ccc([C@@H]2c3ccccc3[C@@H]3CCNC[C@H]23)cc1 (relative stereo)	Active		17.5 mg/kg	15 min	12.5 min	15 mg/kg		
Br.CN(C)CCCN1CC=C2C(=C(c3ccccc3)c3ccccc32)C1.O	Active	inactive	15 mg/kg	40 min				
